From patent publication US20030003057A1, “Methods for administering leuprolide by inhalation” (priority 2000, published 2003)

Test: clinical
Details: human, in vivo
Excerpt: Capsules were bottled and the bottles individually enclosed in an appropriately labeled sealed foil pouch with desiccant and stored at room temperature. […] Subjects were instructed to inhale deeply and forcefully while wearing nose clips. Inhalations were followed by a 5 second breath hold prior to exhalation. […] Leuprolide was supplied in multiple dose vials as a sterile aqueous solution for injection. […] The pH was adjusted with sodium hydroxide or acetic acid. Prior to administration, each vial was visually inspected for particulate matter or discoloration. The leuprolide vials were stored at room temperature. […] The injection was given in the opposite arm to that used for blood sample for pharmacokinetic assessments. There were 2 dosing visits, followed by a post study medical 3 to 14 days after the last dose. The interval between doses was no less than 7 days. […] [table] Relative bioavailability: The bioavailability (BA) of the leuprolide formulation delivered from Turbospin, relative to intravenous injection of leuprolide, was determined from the ratio of log-transformed AUC values, according to the following equation, Relative BA=(InAUCPulmoSphere/InAUCiv) * (nominal dosePulmoSphere/doseiv), […]

- bioavailability: ~18%
Compound: CCNC(=O)[C@@H]1CCCN1C(=O)[C@H](CCCNC(=N)N)NC(=O)[C@H](CC(C)C)NC(=O)[C@@H](CC(C)C)NC(=O)[C@H](Cc1ccc(O)cc1)NC(=O)[C@H](CO)NC(=O)[C@H](Cc1c[nH]c2ccccc12)NC(=O)[C@H](Cc1c[nH]cn1)NC(=O)[C@@H]1CCC(=O)N1 [leuprolide]
